Measured values published in publication PMC9851200, “Multiparameter phenotypic screening for endogenous TFEB and TFE3 translocation identifies novel chemical series modulating lysosome function” (Autophagy, 2022).

Legend:
Type in all cases: binding
[1] = biological target: kinases (KINOMEscan panel) (Homo sapiens, UniProt Q9NYY3); conditions: PLK2; NEW KINOMEscan
[2] = biological target: kinases (KINOMEscan panel) (Homo sapiens, UniProt P50613); conditions: kinase CDK7; NEW KINOMEscan
[3] = biological target: T1, kinases (KINOMEscan panel) (Homo sapiens, UniProt P29323); conditions: EPHB2; NEW KINOMEscan
T1 sequence (P29323 19-1055): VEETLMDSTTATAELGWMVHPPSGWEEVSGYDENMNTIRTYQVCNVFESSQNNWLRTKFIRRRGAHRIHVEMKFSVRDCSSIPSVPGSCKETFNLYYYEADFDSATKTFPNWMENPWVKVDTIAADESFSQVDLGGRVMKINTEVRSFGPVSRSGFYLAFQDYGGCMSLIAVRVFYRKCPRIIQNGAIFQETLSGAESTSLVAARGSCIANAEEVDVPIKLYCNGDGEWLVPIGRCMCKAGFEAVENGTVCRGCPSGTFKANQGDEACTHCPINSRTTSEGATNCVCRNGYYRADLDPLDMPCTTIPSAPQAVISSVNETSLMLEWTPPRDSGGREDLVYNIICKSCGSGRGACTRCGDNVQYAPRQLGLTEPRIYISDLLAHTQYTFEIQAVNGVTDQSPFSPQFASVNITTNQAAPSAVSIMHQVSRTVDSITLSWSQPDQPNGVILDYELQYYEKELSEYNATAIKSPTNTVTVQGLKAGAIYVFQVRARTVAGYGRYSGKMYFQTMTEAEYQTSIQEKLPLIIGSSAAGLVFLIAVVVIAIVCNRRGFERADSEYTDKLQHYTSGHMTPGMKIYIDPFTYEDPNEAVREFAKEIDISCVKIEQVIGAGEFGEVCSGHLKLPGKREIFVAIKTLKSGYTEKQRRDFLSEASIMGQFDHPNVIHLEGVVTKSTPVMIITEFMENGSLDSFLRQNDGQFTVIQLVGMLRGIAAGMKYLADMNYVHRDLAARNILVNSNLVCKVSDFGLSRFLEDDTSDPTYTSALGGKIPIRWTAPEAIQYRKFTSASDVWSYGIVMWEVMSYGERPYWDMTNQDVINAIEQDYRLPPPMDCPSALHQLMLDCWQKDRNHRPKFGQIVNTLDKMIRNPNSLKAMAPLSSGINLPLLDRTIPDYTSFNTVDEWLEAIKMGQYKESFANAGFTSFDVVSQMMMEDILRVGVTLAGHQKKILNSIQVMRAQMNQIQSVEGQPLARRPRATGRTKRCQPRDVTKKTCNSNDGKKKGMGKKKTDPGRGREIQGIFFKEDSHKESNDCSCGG

[4] = biological target: kinases (KINOMEscan panel) (Homo sapiens, UniProt Q8NEV4); conditions: kinase MYO3A; NEW KINOMEscan
Chain of kinases (KINOMEscan panel) (Homo sapiens, UniProt Q8NEV4) (Q8NEV4 whole entry): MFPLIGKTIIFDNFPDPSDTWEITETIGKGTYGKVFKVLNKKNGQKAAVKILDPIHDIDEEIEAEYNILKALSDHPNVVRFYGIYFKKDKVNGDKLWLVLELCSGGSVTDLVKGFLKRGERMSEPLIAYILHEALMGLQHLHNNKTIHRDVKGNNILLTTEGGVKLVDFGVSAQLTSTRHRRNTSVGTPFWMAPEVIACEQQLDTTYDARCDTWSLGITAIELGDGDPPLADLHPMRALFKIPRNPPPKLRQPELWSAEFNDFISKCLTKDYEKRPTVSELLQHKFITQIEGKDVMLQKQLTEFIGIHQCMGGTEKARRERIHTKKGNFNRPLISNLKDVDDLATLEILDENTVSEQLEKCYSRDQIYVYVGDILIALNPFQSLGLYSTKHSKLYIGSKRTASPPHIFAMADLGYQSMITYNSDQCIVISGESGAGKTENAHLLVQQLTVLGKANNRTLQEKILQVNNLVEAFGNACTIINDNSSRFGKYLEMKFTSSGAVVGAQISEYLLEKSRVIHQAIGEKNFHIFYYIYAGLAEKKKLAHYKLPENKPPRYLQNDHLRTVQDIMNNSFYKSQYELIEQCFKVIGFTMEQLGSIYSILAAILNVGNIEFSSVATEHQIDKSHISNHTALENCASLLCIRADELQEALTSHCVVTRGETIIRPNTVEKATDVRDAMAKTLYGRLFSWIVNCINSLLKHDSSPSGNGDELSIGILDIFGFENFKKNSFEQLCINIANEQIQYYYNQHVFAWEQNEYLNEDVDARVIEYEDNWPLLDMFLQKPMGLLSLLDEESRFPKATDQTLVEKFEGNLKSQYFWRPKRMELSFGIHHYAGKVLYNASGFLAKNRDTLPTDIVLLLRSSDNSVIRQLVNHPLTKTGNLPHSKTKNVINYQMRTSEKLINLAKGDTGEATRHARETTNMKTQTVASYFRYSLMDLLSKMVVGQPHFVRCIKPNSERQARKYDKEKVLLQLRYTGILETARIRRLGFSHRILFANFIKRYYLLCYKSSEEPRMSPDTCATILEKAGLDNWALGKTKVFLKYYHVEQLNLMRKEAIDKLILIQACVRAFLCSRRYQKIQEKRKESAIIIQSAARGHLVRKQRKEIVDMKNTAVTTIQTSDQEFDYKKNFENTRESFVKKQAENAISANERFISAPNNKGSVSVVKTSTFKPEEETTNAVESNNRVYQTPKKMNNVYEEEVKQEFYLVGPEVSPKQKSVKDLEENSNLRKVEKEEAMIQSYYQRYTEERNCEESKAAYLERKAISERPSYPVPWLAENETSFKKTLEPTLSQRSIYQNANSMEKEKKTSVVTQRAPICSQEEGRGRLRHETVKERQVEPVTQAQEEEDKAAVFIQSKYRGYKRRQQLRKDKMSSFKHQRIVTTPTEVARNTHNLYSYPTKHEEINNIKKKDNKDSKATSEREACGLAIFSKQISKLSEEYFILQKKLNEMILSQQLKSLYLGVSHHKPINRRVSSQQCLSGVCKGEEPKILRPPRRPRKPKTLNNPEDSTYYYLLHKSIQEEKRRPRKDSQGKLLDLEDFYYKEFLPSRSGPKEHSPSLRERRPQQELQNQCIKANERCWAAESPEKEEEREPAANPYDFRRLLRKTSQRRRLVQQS

[5] = biological target: T2, kinases (KINOMEscan panel) (Homo sapiens, UniProt P54753); conditions: kinase EPHB3; NEW KINOMEscan
T2 sequence (P54753 34-998): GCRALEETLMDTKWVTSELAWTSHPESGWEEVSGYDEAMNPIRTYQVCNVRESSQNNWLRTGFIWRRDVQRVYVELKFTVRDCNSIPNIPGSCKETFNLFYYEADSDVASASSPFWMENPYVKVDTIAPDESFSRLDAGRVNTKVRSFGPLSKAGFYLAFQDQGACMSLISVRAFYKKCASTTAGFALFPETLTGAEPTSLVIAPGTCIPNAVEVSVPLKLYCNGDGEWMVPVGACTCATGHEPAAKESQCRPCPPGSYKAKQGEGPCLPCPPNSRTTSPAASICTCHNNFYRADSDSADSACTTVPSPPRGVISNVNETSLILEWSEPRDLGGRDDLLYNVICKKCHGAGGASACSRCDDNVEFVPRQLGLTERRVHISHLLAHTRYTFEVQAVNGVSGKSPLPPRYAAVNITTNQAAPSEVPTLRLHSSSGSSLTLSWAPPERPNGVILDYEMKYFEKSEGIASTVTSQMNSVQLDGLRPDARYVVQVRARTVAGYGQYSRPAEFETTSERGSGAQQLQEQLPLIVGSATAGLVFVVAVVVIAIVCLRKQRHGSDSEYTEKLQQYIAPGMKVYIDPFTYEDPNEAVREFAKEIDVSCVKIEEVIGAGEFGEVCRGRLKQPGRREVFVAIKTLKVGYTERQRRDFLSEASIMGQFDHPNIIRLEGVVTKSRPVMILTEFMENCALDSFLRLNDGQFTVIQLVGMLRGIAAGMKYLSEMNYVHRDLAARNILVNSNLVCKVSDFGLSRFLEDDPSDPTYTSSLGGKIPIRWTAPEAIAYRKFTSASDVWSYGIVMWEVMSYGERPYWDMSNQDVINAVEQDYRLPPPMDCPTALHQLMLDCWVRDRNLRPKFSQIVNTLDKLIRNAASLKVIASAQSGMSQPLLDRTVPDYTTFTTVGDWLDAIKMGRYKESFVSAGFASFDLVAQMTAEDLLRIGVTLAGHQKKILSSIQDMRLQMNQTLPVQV

[6] = biological target: T3, kinases (KINOMEscan panel) (Homo sapiens, UniProt Q8IWQ3); conditions: kinase BRSK2; NEW KINOMEscan
T3 sequence (Q8IWQ3 1-736): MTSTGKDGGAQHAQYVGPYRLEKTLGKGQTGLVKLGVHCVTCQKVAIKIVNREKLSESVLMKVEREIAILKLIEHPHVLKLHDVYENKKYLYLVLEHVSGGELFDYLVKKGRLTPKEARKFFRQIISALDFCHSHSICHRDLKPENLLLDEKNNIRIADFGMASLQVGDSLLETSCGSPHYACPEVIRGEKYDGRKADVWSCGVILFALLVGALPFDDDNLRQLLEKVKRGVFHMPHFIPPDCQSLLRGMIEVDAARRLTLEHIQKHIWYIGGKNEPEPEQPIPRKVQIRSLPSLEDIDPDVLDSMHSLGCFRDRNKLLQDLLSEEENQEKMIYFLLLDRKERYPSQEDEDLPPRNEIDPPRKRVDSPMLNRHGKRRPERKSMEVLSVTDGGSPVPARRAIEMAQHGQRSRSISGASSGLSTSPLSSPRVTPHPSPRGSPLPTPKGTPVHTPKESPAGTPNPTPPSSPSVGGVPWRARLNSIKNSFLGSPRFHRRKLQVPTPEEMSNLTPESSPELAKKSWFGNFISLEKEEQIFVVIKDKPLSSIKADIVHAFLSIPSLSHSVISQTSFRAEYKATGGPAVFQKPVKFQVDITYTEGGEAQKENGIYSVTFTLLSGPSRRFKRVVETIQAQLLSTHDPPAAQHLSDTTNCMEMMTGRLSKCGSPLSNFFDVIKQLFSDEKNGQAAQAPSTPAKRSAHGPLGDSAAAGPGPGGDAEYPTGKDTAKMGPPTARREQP

Chain of kinases (KINOMEscan panel) (Homo sapiens, UniProt P50613) (P50613 whole entry): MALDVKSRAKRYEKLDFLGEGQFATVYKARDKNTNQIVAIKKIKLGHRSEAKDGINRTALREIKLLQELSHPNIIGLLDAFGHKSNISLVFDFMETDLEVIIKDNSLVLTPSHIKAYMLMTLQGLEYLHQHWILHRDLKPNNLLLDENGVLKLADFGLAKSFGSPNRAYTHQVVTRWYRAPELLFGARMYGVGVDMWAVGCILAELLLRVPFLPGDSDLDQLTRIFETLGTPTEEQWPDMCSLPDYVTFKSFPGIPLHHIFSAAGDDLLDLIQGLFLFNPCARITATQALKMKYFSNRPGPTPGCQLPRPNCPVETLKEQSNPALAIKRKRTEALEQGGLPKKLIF
Chain of kinases (KINOMEscan panel) (Homo sapiens, UniProt Q9NYY3) (Q9NYY3 whole entry): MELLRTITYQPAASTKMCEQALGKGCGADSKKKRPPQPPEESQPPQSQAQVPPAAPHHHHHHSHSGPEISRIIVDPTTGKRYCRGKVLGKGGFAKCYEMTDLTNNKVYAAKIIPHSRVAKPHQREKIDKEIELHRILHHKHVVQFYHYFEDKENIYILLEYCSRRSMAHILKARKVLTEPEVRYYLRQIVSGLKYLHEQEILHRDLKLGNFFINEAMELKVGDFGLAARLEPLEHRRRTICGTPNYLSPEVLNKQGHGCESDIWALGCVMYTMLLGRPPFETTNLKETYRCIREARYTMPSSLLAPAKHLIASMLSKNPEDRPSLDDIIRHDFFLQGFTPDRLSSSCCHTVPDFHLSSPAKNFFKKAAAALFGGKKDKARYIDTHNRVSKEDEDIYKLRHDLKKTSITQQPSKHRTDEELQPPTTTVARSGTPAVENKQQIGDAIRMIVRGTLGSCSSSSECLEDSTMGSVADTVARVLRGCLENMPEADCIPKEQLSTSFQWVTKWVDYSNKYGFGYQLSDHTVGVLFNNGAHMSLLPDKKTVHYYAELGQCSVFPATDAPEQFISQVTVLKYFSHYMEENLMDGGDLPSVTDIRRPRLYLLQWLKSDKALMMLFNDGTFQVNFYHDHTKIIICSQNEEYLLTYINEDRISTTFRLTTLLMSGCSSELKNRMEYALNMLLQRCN

Row | SMILES | KINOMEscan PLK2 [1] | KINOMEscan CDK7 [2] | KINOMEscan EPHB2 [3] | KINOMEscan MYO3A [4] | KINOMEscan EPHB3 [5] | KINOMEscan BRSK2 [6]
1 | Cc1cccc(-c2nc(Nc3ccc4nn(C)cc4c3)c3ccccc3n2)n1 [NK167] | 0 | 0 | 12 | 0 | 6 | 9
2 | Cc1cccc(-c2nc(N(C)c3ccc4ncsc4c3)c3ccccc3n2)n1 [NK-161] | 0 | 7 | 15 | 0 | 6 | 12
